Source: patent US4025629A, “P-(trifluoromethylquinolylamino)benzamides, pharmaceutical dosage forms and method of treatment” (The Upjohn Company, priority 1975, dated 1977)
Values joined by “and” are separate entries in the source; they are usually repeats but may differ in a detail not shown here. Equal entries are not always repeated.

Legend:
[1] = test system: Schistosoma Mansoni cercariae; details: 160 mg./kg. subcutaneously; cited from earlier work
Plasmodium berghei = details: mice; 160 mg./kg. subcutaneously; cited from earlier work
[2] = test system: male mice (motor activity); experiment: Inhibition of motor activity of mice on drug-containing diet (actophotometers); type: in vivo, mouse; details: after 20 hours on diet
Description: The essential active ingredient is suspended in a normal mouse diet to provide a concentration in the diet of from about 0.03 to about 0.3%. Groups of male mice, 18-22 gm. each, are fed a stock diet containing various concentrations of the essential active ingredient. Motor activity is determined after 20 hours on the diet, four groups of two mice from each test group being placed in actophotometers. After a ten minute acclimation period, motor activity is recorded for a ten minute period with the following results: […]

[3] = test system: unanesthetized normotensive rats; experiment: Hypotensive effect (mean arterial pressure) in unanesthetized normotensive rats, oral aqueous suspension; type: in vivo, rat; details: for B.P. Change: individual rats
Description: An aqueous suspension for oral administration is prepared by suspending the essential active ingredient at a concentration of 10 mg./ml. in an aqueous solution containing 1% of sodium carboxymethylcellulose. This suspension is used for bringing about hypotensive effects in unanesthetized normotensive rats. The rats are prepared for measuring blood pressure directly from the aorta through a chronic indwelling cannula (Weeks and Jones, Proc. Soc. Exptl. Biol. and Med., 104, 646, 1960). Mean arterial pressure is measured prior to and at four hours and 24 hours after drug administration at a specified dose.

For CN1CCN(C(=O)c2ccc(Nc3ccnc4cc(Cl)ccc34)cc2)CC1 [1-[p-[(7-chloro-4-quinolyl)amino]-N,N-(3-methyl-3-azapentamethylene]benzamide], which “activity against Schistosoma Mansoni cercariae in mice” value [1] is on record?
Its value is “Slight activity”.

What about the “activity against Plasmodium berghei” value (Plasmodium berghei) of the same compound?
The value was “Slight activity”.

Which “% Inhibition Motor Activity” value ([2]; 0.1% conc. in diet, 24 hour drug intake 95 mg./kg.) does the source give for CN1CCN(C(=O)c2ccc(Nc3ccnc4cc(C(F)(F)F)ccc34)cc2)CC1 [essential active ingredient, p-[(7-trifluoromethyl-4-quinolyl)amino]-N,N-(3-methyl-3-azapentamethylene)benzamide] here?
Its value is 96%.

And the “% Inhibition Motor Activity” value ([2]; 0.3% conc. in diet (third line), 24 hour drug intake 47 mg./kg.)?
The value was 68%.

And the “% Inhibition Motor Activity” value ([2]; 0.3% conc. in diet, 24 hour drug intake 94 mg./kg.)?
The value was 92%.

And the “B.P. Change” value ([3]; oral 1 mg./kg., 4 hr.)?
The value was 0 mm Hg.

What about the “B.P. Change” value ([3]; oral 1 mg./kg., 24 hr.) of the same compound?
Its value is -10 mm Hg and 0 mm Hg.

What about the “B.P. Change” value ([3]; oral 3.12 mg./kg., 4 hr.) of the same compound?
Its value is -18 mm Hg and +12 mm Hg and 0 mm Hg.

What about the “B.P. Change” value ([3]; oral 3.12 mg./kg., 24 hr.) of the same compound?
The value was -18 mm Hg and -10 mm Hg.

And the “B.P. Change, avg” value ([3]; oral 6.35 mg./kg., 4 hr., average of 4 rats (initial avg 138))?
Its value is -13 mm Hg.

And the “B.P. Change” value ([3]; oral 6.35 mg./kg., 4 hr.)?
The value was -14 mm Hg and -16 mm Hg.

And the “B.P. Change, avg” value ([3]; oral 6.35 mg./kg., 24 hr., average of 4 rats (initial avg 138))?
Its value is -12 mm Hg.

What about the “B.P. Change” value ([3]; oral 6.35 mg./kg., 24 hr.) of the same compound?
Its value is -10 mm Hg and -14 mm Hg.

And the “B.P. Change, avg” value ([3]; oral 12.5 mg./kg., 24 hr., average of 4 rats (initial avg 132))?
The value was -17 mm Hg.

What about the “B.P. Change” value ([3]; oral 12.5 mg./kg., 24 hr.) of the same compound?
The value was -24 mm Hg and -12 mm Hg.

And the “B.P. Change, avg” value ([3]; oral 25 mg./kg., 4 hr., average of 4 rats (initial avg 138))?
The value was -18 mm Hg.

And the “B.P. Change” value ([3]; oral 25 mg./kg., 4 hr.)?
Its value is -22 mm Hg and -30 mm Hg and -12 mm Hg.

And the “B.P. Change, avg” value ([3]; oral 25 mg./kg., 24 hr., average of 4 rats (initial avg 138))?
Its value is -23 mm Hg.

What about the “B.P. Change” value ([3]; oral 25 mg./kg., 24 hr.) of the same compound?
The value was -22 mm Hg and -28 mm Hg and -20 mm Hg.

And the “B.P. Change, avg” value ([3]; oral 50 mg./kg., 4 hr., average of 4 rats (initial avg 133))?
Its value is -13 mm Hg.

What about the “B.P. Change” value ([3]; oral 50 mg./kg., 4 hr.) of the same compound?
The value was -16 mm Hg and -22 mm Hg.

What about the “B.P. Change, avg” value ([3]; oral 50 mg./kg., 24 hr., average of 4 rats (initial avg 133)) of the same compound?
The value was -17 mm Hg.

What about the “B.P. Change” value ([3]; oral 50 mg./kg., 24 hr.) of the same compound?
The value was -22 mm Hg and -28 mm Hg and 0 mm Hg.

With CN1CCN(C(=O)c2cccc(Nc3ccnc4cc(Cl)ccc34)c2)CC1 [its meta isomer] as the compound, how does the “activity against Schistosoma Mansoni cercariae in mice” value [1] read?
Its value is “Slight activity”.

And the “activity against Plasmodium berghei” value (Plasmodium berghei)?
The value was “Slight activity”.
